{"source": "patent US6683027B2", "about": "“Herbicidal mixtures” (BASF Aktienegesellschaft, priority 2000, dated 2004)", "key": {"Alopecurus myosuroides": {"system": "Alopecurus myosuroides", "assay": "greenhouse pre-emergence trial, percent damage vs untreated control 21 days after treatment", "assay_type": "in vivo", "conditions": "ALOMY"}, "Galium aparine": {"system": "Galium aparine", "assay": "greenhouse pre-emergence trial, percent damage vs untreated control 21 days after treatment", "assay_type": "in vivo", "conditions": "GALAP"}}, "data": [{"smiles": "FC(F)(F)c1ccc(-c2nccc(Oc3cccc(C(F)(F)F)c3)n2)cc1", "note": "[Compound A, 4-(3-trifluoromethylphenoxy)-2-(4-trifluoromethylphenyl)-pyrimidine]", "values": [{"measurement": "Compound A alone (% control)", "setting": "Alopecurus myosuroides; 3.75 g/ha, Example 1A", "value": 0, "unit": "%"}, {"measurement": "Compound A alone (% control)", "setting": "Alopecurus myosuroides; 3.75 g/ha, Example 3", "value": 0, "unit": "%"}, {"measurement": "Compound A alone (% control)", "setting": "Alopecurus myosuroides; 7.5 g/ha, Example 1A", "value": 5, "unit": "%"}, {"measurement": "Compound A alone (% control)", "setting": "Alopecurus myosuroides; 7.5 g/ha, Example 3", "value": 0, "unit": "%"}, {"measurement": "Compound A alone (% control)", "setting": "Galium aparine; 3.75 g/ha, Example 1A", "value": 0, "unit": "%"}, {"measurement": "Compound A alone (% control)", "setting": "Galium aparine; 3.75 g/ha, Example 2", "value": 0, "unit": "%"}, {"measurement": "Compound A alone (% control)", "setting": "Galium aparine; 7.5 g/ha, Example 2", "value": 0, "unit": "%"}, {"measurement": "Compound A alone (% control)", "setting": "Galium aparine; 15 g/ha, Example 2", "value": 10, "unit": "%"}, {"measurement": "Compound A alone (% control)", "setting": "Galium aparine; 15 g/ha, Example 3", "value": 0, "unit": "%"}, {"measurement": "Compound A alone (% control)", "setting": "Galium aparine; 30 g/ha, Example 3", "value": 0, "unit": "%"}, {"measurement": "Compound A alone (% control)", "setting": "Galium aparine; 60 g/ha, Example 3", "value": 10, "unit": "%"}]}]}
